Data: BindingDB's records for patent US20240316047 (Accent Therapeutics, 2024)

target: ATP-dependent RNA helicase A (UniProt Q08211); assay: Biochemical Assay
Sequence (Q08211 whole entry): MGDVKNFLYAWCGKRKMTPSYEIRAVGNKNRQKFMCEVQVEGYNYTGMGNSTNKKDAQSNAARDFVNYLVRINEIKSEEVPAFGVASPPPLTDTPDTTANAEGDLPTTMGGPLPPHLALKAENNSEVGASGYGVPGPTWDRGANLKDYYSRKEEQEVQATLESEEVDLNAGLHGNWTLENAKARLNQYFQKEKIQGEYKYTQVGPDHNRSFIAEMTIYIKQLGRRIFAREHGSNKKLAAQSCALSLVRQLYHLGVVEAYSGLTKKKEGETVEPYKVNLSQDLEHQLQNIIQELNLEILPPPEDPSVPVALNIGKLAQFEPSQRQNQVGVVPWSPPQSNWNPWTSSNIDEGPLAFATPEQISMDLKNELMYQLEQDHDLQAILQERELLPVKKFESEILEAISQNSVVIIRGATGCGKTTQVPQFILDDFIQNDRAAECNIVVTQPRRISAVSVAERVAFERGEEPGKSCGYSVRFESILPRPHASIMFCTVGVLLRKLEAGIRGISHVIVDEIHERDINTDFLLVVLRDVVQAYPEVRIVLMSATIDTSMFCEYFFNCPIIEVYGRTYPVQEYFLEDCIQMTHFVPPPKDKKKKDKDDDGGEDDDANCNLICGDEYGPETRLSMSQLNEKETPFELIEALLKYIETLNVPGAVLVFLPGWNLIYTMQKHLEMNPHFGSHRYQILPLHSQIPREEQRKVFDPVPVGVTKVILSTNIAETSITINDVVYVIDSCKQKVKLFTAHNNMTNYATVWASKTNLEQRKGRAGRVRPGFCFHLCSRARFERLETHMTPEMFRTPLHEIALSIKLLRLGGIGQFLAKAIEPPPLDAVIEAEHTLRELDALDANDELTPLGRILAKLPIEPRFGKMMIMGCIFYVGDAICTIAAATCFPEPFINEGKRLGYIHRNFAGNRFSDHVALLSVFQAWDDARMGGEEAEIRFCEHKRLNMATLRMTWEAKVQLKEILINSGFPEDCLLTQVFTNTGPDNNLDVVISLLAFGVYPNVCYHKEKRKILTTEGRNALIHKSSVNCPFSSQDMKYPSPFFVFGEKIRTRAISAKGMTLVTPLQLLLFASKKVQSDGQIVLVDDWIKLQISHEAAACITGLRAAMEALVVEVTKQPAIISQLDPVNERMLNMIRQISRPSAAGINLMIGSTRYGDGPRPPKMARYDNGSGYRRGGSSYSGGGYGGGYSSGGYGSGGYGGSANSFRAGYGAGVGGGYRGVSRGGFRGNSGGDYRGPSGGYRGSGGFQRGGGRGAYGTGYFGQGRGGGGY

SMILES | IC50 [nM]
Cc1cc(C(=O)Nc2cc(Cl)cc(NS(C)(=O)=O)c2)cn1-c1ccccc1 [US20240316047, Example 129] | 38.4
CC(C)(C)OC(=O)N1CCC(n2cc(C(=O)Nc3cc(Cl)cc(NS(C)(=O)=O)c3)cn2)CC1 [US20240316047, Example 136] | 234
Cc1cccnc1-c1cc(C(=O)Nc2cc(Cl)cc(NS(C)(=O)=O)c2)cn1CC(F)F [US20240316047, Example 143] | 51.1
Cc1sc(C(=O)Nc2cc(Cl)cc(NS(C)(=O)=O)c2)cc1-c1ncc(N2CCC3(C2)CC3(F)F)cn1 (centres undefined) [US20240316047, Example 491] | 10.8
